In paper PMC5727262, “Molecular mechanism of K65 acetylation-induced attenuation of Ubc9 and the NDSM interaction” (Scientific Reports, 2017):
Peptide text beside a SMILES is read from it.

Key:
Ubc9 (WT) = target: T1, Ubc9 (WT) (Homo sapiens, UniProt P63279); assay: ITC binding of sumoylation-motif peptides to WT Ubc9; details: 25 °C, pH 8.0, 20 mM potassium phosphate, 100 mM NaCl, 1:1 binding stoichiometry assumed, triplicate measurements
T1 construct: made in house; host or cells: E. coli (stated as BL21 (DE3) for the acetylated variant)
T1 sequence (P63279 whole entry): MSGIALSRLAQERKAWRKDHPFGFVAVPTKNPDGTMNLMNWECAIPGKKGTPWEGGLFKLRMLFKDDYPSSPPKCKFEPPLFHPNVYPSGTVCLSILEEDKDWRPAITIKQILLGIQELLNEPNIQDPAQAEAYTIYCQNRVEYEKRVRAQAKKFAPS
Procedure: (§1) ITC binding experiments were used to quantify the effect of Ubc9 acetylation on NDSM substrate binding (Fig. 2A). […] The dissociation constants for Elk1 and CBP were 70 and 57 μM, respectively (Fig. 2C and D), which were roughly similar to the dissociation constant of 56 μM obtained for the more acidic Calpain2 (Fig. 2E). Contrary to our expectations, RanGAP1 bound more strongly than the NDSMs with a dissociation constant of 13 μM. […] Similarly, not every acidic residue from the NDSM contributed equally to Ubc9 binding and even positions ×1 and ×2 could be potentially deciding factors. We exploited the long acidic stretch of Calpain2 in additional studies described below to explain this phenomenon. […] The observed switching from exothermic versus endothermic binding of the NDSM versus SM containing peptides is surprising. We speculate that the long negatively charged tail of NDSM may interact with Ubc9 in such a way that it free up more Ubc9-bound water molecules, resulting in an overall entropy increase. More work need to be done to fully understand its implication in binding mechanism.
(§2) Figure 2 Effect of K65 acetylation on Ubc9 affinity for substrates. (A) Summary of the thermodynamic parameters obtained from triplicate isothermal titration calorimetry (ITC) measurements. Representative ITC thermograms for Ubc9 binding to the RanGAP1 (B), Elk1 (C), CBP (D), and Calpain2 (E) peptides. The heat absorbed (or released) post-injection, after correcting for the heat of dilution, is shown in lower panels. […]
(§3) The ITC experiments were repeated twice at 25 °C by a controlled 2 μl addition of peptide to 200 μl of WT or Ac-Ubc9K65 in pH 8.0 buffer containing 20 mM potassium phosphate and 100 mM NaCl using an iTC200 calorimeter (GE Healthcare, Parsippany, NJ, USA). The first data point of each experiment was excluded from analysis and the baseline-corrected data were analyzed using Origin 7.0 software assuming 1:1 binding stoichiometry.

Ac-Ubc9K65 = target: T2, Ac-Ubc9K65 (Homo sapiens, UniProt P63279); assay: ITC binding of sumoylation-motif peptides to K65-acetylated Ubc9; details: 25 °C, pH 8.0, 20 mM potassium phosphate, 100 mM NaCl, 1:1 binding stoichiometry assumed, triplicate measurements
T2 construct: made in house; host or cells: E. coli BL21 (DE3) with pAcKRS-3 and pCDF PylT-1-Ubc9 (amber codon at K65), fed acetyl-lysine
T2 sequence (P63279 2-158): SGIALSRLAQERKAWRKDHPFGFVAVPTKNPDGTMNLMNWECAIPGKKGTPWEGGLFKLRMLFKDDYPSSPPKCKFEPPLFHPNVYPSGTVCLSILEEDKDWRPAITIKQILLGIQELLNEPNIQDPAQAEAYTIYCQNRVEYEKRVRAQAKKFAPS
Procedure: as §1, §2, §3

Kd (Ubc9 (WT)) [µM]	Kd (Ac-Ubc9K65) [µM]	SMILES
57.4 ± 2.8	105	CC(C)[C@H](NC(=O)[C@H](CCC(=O)O)NC(=O)[C@@H](NC(=O)[C@H](CCCCN)NC(=O)[C@@H](NC(=O)[C@H](CCC(=O)O)NC(=O)[C@@H]1CCCN1C(=O)[C@H](CCCCN)NC(=O)[C@H](CCCCN)NC(=O)[C@H](CCC(=O)O)NC(=O)[C@@H](N)CC(=O)O)C(C)C)C(C)C)C(=O)N[C@@H](CCCCN)C(=O)N[C@@H](CCC(=O)O)C(=O)N[C@@H](CCC(=O)O)C(=O)N[C@@H](CCC(=O)O)C(=O)N[C@@H](CCC(=O)O)C(=O)N[C@@H](CO)C(=O)N[C@@H](CO)C(=O)N[C@@H](CO)C(=O)N[C@@H](CC(N)=O)C(=O)O [CBP] (H-DEKKPEVKVEVKEEEESSSN-OH)
55.8 ± 3.3	80.3 ± 2.7	CC[C@H](C)[C@H](NC(=O)[C@H](CC(C)C)NC(=O)[C@H](Cc1ccc(O)cc1)NC(=O)[C@H](CCC(N)=O)NC(=O)[C@@H]1CCCN1)C(=O)N[C@@H](CCCCN)C(=O)N[C@@H](CC(C)C)C(=O)N[C@@H](CCC(=O)O)C(=O)N[C@@H](CCC(=O)O)C(=O)N[C@@H](CCC(=O)O)C(=O)N[C@@H](CC(=O)O)C(=O)N[C@@H](CCC(=O)O)C(=O)N[C@@H](CC(=O)O)C(=O)N[C@@H](CCC(=O)O)C(=O)N[C@@H](CCC(=O)O)C(=O)N[C@@H](CC(=O)O)C(=O)NCC(=O)N[C@@H](CCC(=O)O)C(=O)N[C@@H](CO)C(=O)NCC(=O)N[C@@H](CS)C(=O)N[C@H](C(=O)O)[C@@H](C)O [Calpain2] (H-PQYLIKLEEEDEDEEDGESGCT-OH)
70.2 ± 1.3	103	CC(C)C[C@H](NC(=O)[C@H](CCC(=O)O)NC(=O)[C@H](CCC(=O)O)NC(=O)[C@H](CCCCN)NC(=O)[C@@H]1CCCN1C(=O)CNC(=O)[C@H](CCC(=O)O)NC(=O)[C@@H](NC(=O)[C@H](CCCCN)NC(=O)[C@@H](NC(=O)[C@H](CCC(=O)O)NC(=O)[C@@H]1CCCN1C(=O)[C@@H]1CCCN1C(=O)[C@H](CC(C)C)NC(=O)[C@H](C)NC(=O)[C@@H](N)CCCNC(=N)N)C(C)C)C(C)C)C(=O)N[C@@H](CCC(=O)O)C(=O)N[C@H](C(=O)N[C@@H](C)C(=O)NCC(=O)O)C(C)C [Elk1] (H-RALPPEVKVEGPKEELEVAG-OH)
13.5 ± 0.9	13.5 ± 2.2	CC[C@H](C)[C@H](NC(=O)[C@H](C)NC(=O)[C@H](CCCCN)NC(=O)[C@@H](NC(=O)[C@H](CCCCN)NC(=O)[C@H](CC(=O)O)NC(=O)[C@H](CCC(=O)O)NC(=O)[C@H](CO)NC(=O)[C@H](CCCCN)NC(=O)[C@H](CC(C)C)NC(=O)[C@H](CC(C)C)NC(=O)CNC(=O)[C@H](CCSC)NC(=O)[C@H](Cc1c[nH]cn1)NC(=O)[C@@H](NC(=O)[C@@H](N)CC(C)C)C(C)C)C(C)C)C(=O)N[C@@H](C)C(=O)N[C@@H](CC(N)=O)C(=O)N[C@@H](CC(C)C)C(=O)N[C@@H](Cc1ccc(O)cc1)C(=O)O [RanGAP1, reference compound] (H-LVHMGLLKSEDKVKAIANLY-OH)
